In US10681909B2, “Herbicidal triazoles” (FMC Corporation, priority 2014, dated 2020):

Tests used:
[1] = test system: corn; assay: Test A postemergence; format: in vivo, Zea mays; conditions: 0 to 100 scale (0 no effect, 100 complete control), approx. 10 d
Method in brief: (§1)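 Loam/sand soil mix; compound in non-phytotoxic solvent + surfactant. Pre: directed soil spray right after planting seed. Post: potted plants 2–10 cm, 1–2 leaf stage, sprayed with same formulation.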

[2] = test system: foxtail, giant; assay: Test A preemergence; format: in vivo, Setaria faberii; conditions: 0 to 100 scale (0 no effect, 100 complete control)
Method in brief: as §1

[3] = test system: barnyardgrass; assay: Test A preemergence; format: in vivo, Echinochloa crus-galli; conditions: 0 to 100 scale (0 no effect, 100 complete control)
Method in brief: as §1

[4] = test system: velvetleaf; assay: Test A postemergence; format: in vivo, Abutilon theophrasti; conditions: 0 to 100 scale (0 no effect, 100 complete control), approx. 10 d
Method in brief: as §1

[5] = test system: foxtail, giant; assay: Test A postemergence; format: in vivo, Setaria faberii; conditions: 0 to 100 scale (0 no effect, 100 complete control), approx. 10 d
Method in brief: as §1

[6] = test system: crabgrass, large; assay: Test A postemergence; format: in vivo, Digitaria sanguinalis; conditions: 0 to 100 scale (0 no effect, 100 complete control), approx. 10 d
Method in brief: as §1

[7] = test system: wheat; assay: Test A preemergence; format: in vivo, Triticum aestivum; conditions: 0 to 100 scale (0 no effect, 100 complete control)
Method in brief: as §1

[8] = test system: pigweed; assay: Test A preemergence; format: in vivo, Amaranthus retroflexus; conditions: 0 to 100 scale (0 no effect, 100 complete control)
Method in brief: as §1

[9] = test system: barnyardgrass; assay: Test C flooded paddy test; format: in vivo, Echinochloa crus-galli; conditions: Flood, applied to paddy water, rating after 13 to 15 d
Excerpt: (§2) At time of treatment, test pots were flooded to 3 cm above the soil surface, treated by application of test compounds directly to the paddy water, and then maintained at that water depth for the duration of the test. Treated plants and controls were maintained in a greenhouse for 13 to 15 d, after which time all species were compared to controls and visually evaluated. […] A dash (-) response means no test result.

[10] = test system: crabgrass, large; assay: Test A preemergence; format: in vivo, Digitaria sanguinalis; conditions: 0 to 100 scale (0 no effect, 100 complete control)
Method in brief: as §1

[11] = test system: barnyardgrass; assay: Test A postemergence; format: in vivo, Echinochloa crus-galli; conditions: 0 to 100 scale (0 no effect, 100 complete control), approx. 10 d
Method in brief: as §1

[12] = test system: velvetleaf; assay: Test A preemergence; format: in vivo, Abutilon theophrasti; conditions: 0 to 100 scale (0 no effect, 100 complete control)
Method in brief: as §1

[13] = test system: rice; assay: Test C flooded paddy test; format: in vivo, Oryza sativa; conditions: Flood, applied to paddy water, rating after 13 to 15 d
Excerpt: as §2

[14] = test system: pigweed; assay: Test A postemergence; format: in vivo, Amaranthus retroflexus; conditions: 0 to 100 scale (0 no effect, 100 complete control), approx. 10 d
Method in brief: as §1

[15] = test system: ducksalad; assay: Test C flooded paddy test; format: in vivo, Heteranthera limosa; conditions: Flood, applied to paddy water, rating after 13 to 15 d
Excerpt: as §2

[16] = test system: wheat; assay: Test A postemergence; format: in vivo, Triticum aestivum; conditions: 0 to 100 scale (0 no effect, 100 complete control), approx. 10 d
Method in brief: as §1

[17] = test system: morningglory; assay: Test A preemergence; format: in vivo, Ipomoea spp.; conditions: 0 to 100 scale (0 no effect, 100 complete control)
Method in brief: as §1

[18] = test system: morningglory; assay: Test A postemergence; format: in vivo, Ipomoea spp.; conditions: 0 to 100 scale (0 no effect, 100 complete control), approx. 10 d
Method in brief: as §1

[19] = test system: sedge, umbrella; assay: Test C flooded paddy test; format: in vivo, Cyperus difformis; conditions: Flood, applied to paddy water, rating after 13 to 15 d
Excerpt: as §2

[20] = test system: corn; assay: Test A preemergence; format: in vivo, Zea mays; conditions: 0 to 100 scale (0 no effect, 100 complete control)
Method in brief: as §1

SMILES: Cc1nc(-c2ccc(C(F)(F)F)cc2)nn1Cc1cccc(C(F)(F)F)c1 [Compound 3]
- Plant response rating, Corn ([1]; 125 g ai/ha): 10
- Plant response rating, Corn ([1]; 500 g ai/ha): 20
- Plant response rating, Foxtail, Giant ([2]; 125 g ai/ha): 0
- Plant response rating, Foxtail, Giant ([2]; 500 g ai/ha, approx. 10 d): 30
- Plant response rating, Barnyardgrass ([3]; 125 g ai/ha): 0
- Plant response rating, Barnyardgrass ([3]; 500 g ai/ha, approx. 10 d): 0
- Plant response rating, Velvetleaf ([4]; 125 g ai/ha): 10
- Plant response rating, Velvetleaf ([4]; 500 g ai/ha): 40
- Plant response rating, Foxtail, Giant ([5]; 125 g ai/ha): 10
- Plant response rating, Foxtail, Giant ([5]; 500 g ai/ha): 30
- Plant response rating, Crabgrass, Large ([6]; 125 g ai/ha): 10
- Plant response rating, Crabgrass, Large ([6]; 500 g ai/ha): 40
- Plant response rating, Wheat ([7]; 125 g ai/ha): 0
- Plant response rating, Wheat ([7]; 500 g ai/ha, approx. 10 d): 0
- Plant response rating, Pigweed ([8]; 125 g ai/ha): 10
- Plant response rating, Pigweed ([8]; 500 g ai/ha, approx. 10 d): 80
- Barnyardgrass plant response rating (0 to 100) ([9]; 31 g ai/ha): 0
- Barnyardgrass plant response rating (0 to 100) ([9]; 62 g ai/ha): 20
- Barnyardgrass plant response rating (0 to 100) ([9]; 125 g ai/ha): 20
- Barnyardgrass plant response rating (0 to 100) ([9]; 250 g ai/ha): 20
- Plant response rating, Crabgrass, Large ([10]; 125 g ai/ha): 0
- Plant response rating, Crabgrass, Large ([10]; 500 g ai/ha, approx. 10 d): 40
- Plant response rating, Barnyardgrass ([11]; 125 g ai/ha): 0
- Plant response rating, Barnyardgrass ([11]; 500 g ai/ha): 10
- Plant response rating, Velvetleaf ([12]; 125 g ai/ha): 0
- Plant response rating, Velvetleaf ([12]; 500 g ai/ha, approx. 10 d): 0
- Rice plant response rating (0 to 100) ([13]; 31 g ai/ha): 0
- Rice plant response rating (0 to 100) ([13]; 62 g ai/ha): 0
- Rice plant response rating (0 to 100) ([13]; 125 g ai/ha): 0
- Rice plant response rating (0 to 100) ([13]; 250 g ai/ha): 0
- Plant response rating, Pigweed ([14]; 125 g ai/ha): 60
- Plant response rating, Pigweed ([14]; 500 g ai/ha): 100
- Ducksalad plant response rating (0 to 100) ([15]; 31 g ai/ha): 0
- Ducksalad plant response rating (0 to 100) ([15]; 62 g ai/ha): 20
- Ducksalad plant response rating (0 to 100) ([15]; 125 g ai/ha): 30
- Ducksalad plant response rating (0 to 100) ([15]; 250 g ai/ha): 40
- Plant response rating, Wheat ([16]; 125 g ai/ha): 0
- Plant response rating, Wheat ([16]; 500 g ai/ha): 0
- Plant response rating, Morningglory ([17]; 125 g ai/ha): 0
- Plant response rating, Morningglory ([17]; 500 g ai/ha, approx. 10 d): 0
- Plant response rating, Morningglory ([18]; 125 g ai/ha): 40
- Plant response rating, Morningglory ([18]; 500 g ai/ha): 80
- Sedge, Umbrella plant response rating (0 to 100) ([19]; 31 g ai/ha): 0
- Sedge, Umbrella plant response rating (0 to 100) ([19]; 62 g ai/ha): 0
- Sedge, Umbrella plant response rating (0 to 100) ([19]; 125 g ai/ha): 40
- Sedge, Umbrella plant response rating (0 to 100) ([19]; 250 g ai/ha): 50
- Plant response rating, Corn ([20]; 125 g ai/ha): 0
- Plant response rating, Corn ([20]; 500 g ai/ha, approx. 10 d): 0
